Literature values in PubChem BioAssay AID1259409 (Chemical Carcinogenesis Research Information System (CCRIS), 2018).
Where “and” joins values, the source holds several entries; their conditions need not be identical. Equal entries are not always repeated.

Test system: rodent chemically induced tumor inhibition, incidence and multiplicity
Test: CCRIS tumor inhibitor studies
Settings: Carcinogen: NONE USED, Route [Inhibitor]: ORAL, Promoter: NONE USED
From the text: The CCRIS database contains chemical records with carcinogenicity, mutagenicity, tumor promotion, and tumor inhibition test results. It was developed by the National Cancer Institute (NCI). Data are derived from studies cited in primary journals, current awareness tools, NCI reports, and other sources. Test results have been reviewed by experts in carcinogenesis and mutagenesis.
CCRIS provides historical information from the years 1985 - 2011. It is no longer updated.
This is an archive assay for CCRIS tumor inhibitor studies.

CC(N)Cc1ccccc1 (stereo not given)
tumour outcome (control, treated, inhibition, significance) (Dose [Inhibitor]: 0, 20 PPM IN FEED FOR 103 WK (STUDY DURATION: 2 YR), Species: MOUSE, Strain/Sex: B6C3F1/FEMALE, Target Tissue: Type of Lesion: HARDERIAN GLAND: ADENOMA): 5/50 (10%), 2/50 (4%), 60%, not calculated
tumour outcome (control, treated, inhibition, significance) (Dose [Inhibitor]: 0, 20 PPM IN FEED FOR 103 WK (STUDY DURATION: 2 YR), Species: MOUSE, Strain/Sex: B6C3F1/FEMALE, Target Tissue: Type of Lesion: LIVER: ADENOMA): 5/50 (10%), 1/50 (2%), 80%, not calculated
tumour outcome (control, treated, inhibition, significance) (Dose [Inhibitor]: 0, 20 PPM IN FEED FOR 103 WK (STUDY DURATION: 2 YR), Species: MOUSE, Strain/Sex: B6C3F1/FEMALE, Target Tissue: Type of Lesion: LUNG: ADENOMA OR CARCINOMA): 8/50 (16%), 6/50 (12%), 25%, not calculated
tumour outcome (control, treated, inhibition, significance) (Dose [Inhibitor]: 0, 20 PPM IN FEED FOR 103 WK (STUDY DURATION: 2 YR), Species: MOUSE, Strain/Sex: B6C3F1/FEMALE, Target Tissue: Type of Lesion: LUNG: ADENOMA): 7/50 (14%), 4/50 (8%), 43%, not calculated
tumour outcome (control, treated, inhibition, significance) (Dose [Inhibitor]: 0, 20 PPM IN FEED FOR 103 WK (STUDY DURATION: 2 YR), Species: MOUSE, Strain/Sex: B6C3F1/MALE, Target Tissue: Type of Lesion: HARDERIAN GLAND: ADENOMA): 4/50 (8%), 2/50 (4%), 50%, not calculated
tumour outcome (control, treated, inhibition, significance) (Dose [Inhibitor]: 0, 20 PPM IN FEED FOR 103 WK (STUDY DURATION: 2 YR), Species: MOUSE, Strain/Sex: B6C3F1/MALE, Target Tissue: Type of Lesion: LIVER: ADENOMA OR CARCINOMA): 14/50 (28%), 12/50 (24%), 15%, not calculated
tumour outcome (control, treated, inhibition, significance) (Dose [Inhibitor]: 0, 20 PPM IN FEED FOR 103 WK (STUDY DURATION: 2 YR), Species: MOUSE, Strain/Sex: B6C3F1/MALE, Target Tissue: Type of Lesion: LIVER: ADENOMA): 10/50 (20%), 7/50 (14%), 30%, not calculated
tumour outcome (control, treated, inhibition, significance) (Dose [Inhibitor]: 0, 20 PPM IN FEED FOR 103 WK (STUDY DURATION: 2 YR), Species: MOUSE, Strain/Sex: B6C3F1/MALE, Target Tissue: Type of Lesion: LIVER: CARCINOMA): 4/50 (8%), 6/50 (12%), -50%, not calculated
tumour outcome (control, treated, inhibition, significance) (Dose [Inhibitor]: 0, 20 PPM IN FEED FOR 103 WK (STUDY DURATION: 2 YR), Species: MOUSE, Strain/Sex: B6C3F1/MALE, Target Tissue: Type of Lesion: LUNG: ADENOMA): 6/50 (12%), 2/50 (4%), 67%, not calculated
tumour outcome (control, treated, inhibition, significance) (Dose [Inhibitor]: 0, 20 PPM IN FEED FOR 103 WK (STUDY DURATION: 2 YR), Species: RAT, Strain/Sex: F344/FEMALE, Target Tissue: Type of Lesion: ANTERIOR PITUITARY GLAND: ADENOMA): 3/50 (62%), 24/48 (50%), 19%, not calculated
tumour outcome (control, treated, inhibition, significance) (Dose [Inhibitor]: 0, 20 PPM IN FEED FOR 103 WK (STUDY DURATION: 2 YR), Species: RAT, Strain/Sex: F344/FEMALE, Target Tissue: Type of Lesion: MAMMARY GLAND: FIBROADENOMA): 21/50 (42%), 11/50 (22%), 48%, not calculated
tumour outcome (control, treated, inhibition, significance) (Dose [Inhibitor]: 0, 20 PPM IN FEED FOR 103 WK (STUDY DURATION: 2 YR), Species: RAT, Strain/Sex: F344/FEMALE, Target Tissue: Type of Lesion: UTERUS: ENDOMETRIAL STROMA POLYP): 10/50 (20%), 6/50 (12%), 40%, not calculated
tumour outcome (control, treated, inhibition, significance) (Dose [Inhibitor]: 0, 20 PPM IN FEED FOR 103 WK (STUDY DURATION: 2 YR), Species: RAT, Strain/Sex: F344/MALE, Target Tissue: Type of Lesion: ADRENAL GLAND: PHEOCHROMOCYTOMA): 23/49 (47%), 15/44 (34%), 28%, not calculated
tumour outcome (control, treated, inhibition, significance) (Dose [Inhibitor]: 0, 20 PPM IN FEED FOR 103 WK (STUDY DURATION: 2 YR), Species: RAT, Strain/Sex: F344/MALE, Target Tissue: Type of Lesion: ANTERIOR PITUITARY GLAND: ADENOMA): 15/49 (31%), 15/48 (31%), 0%, not significant
tumour outcome (control, treated, inhibition, significance) (Dose [Inhibitor]: 0, 100 PPM IN FEED FOR 103 WK (STUDY DURATION: 2 YR), Species: MOUSE, Strain/Sex: B6C3F1/FEMALE, Target Tissue: Type of Lesion: ANTERIOR PITUITARY GLAND: ADENOMA): 12/49 (24%), 6/49 (12%), 50%, not calculated and 12/49 (24%), 1/46 (2%), 92%, p<0.01
tumour outcome (control, treated, inhibition, significance) (Dose [Inhibitor]: 0, 100 PPM IN FEED FOR 103 WK (STUDY DURATION: 2 YR), Species: MOUSE, Strain/Sex: B6C3F1/FEMALE, Target Tissue: Type of Lesion: HARDERIAN GLAND: ADENOMA): 5/50 (10%), 0/47 (0%), 100%, p<0.05
tumour outcome (control, treated, inhibition, significance) (Dose [Inhibitor]: 0, 100 PPM IN FEED FOR 103 WK (STUDY DURATION: 2 YR), Species: MOUSE, Strain/Sex: B6C3F1/FEMALE, Target Tissue: Type of Lesion: LUNG: ADENOMA OR CARCINOMA): 8/50 (16%), 1/47 (2%), 88%, p<0.01
tumour outcome (control, treated, inhibition, significance) (Dose [Inhibitor]: 0, 100 PPM IN FEED FOR 103 WK (STUDY DURATION: 2 YR), Species: MOUSE, Strain/Sex: B6C3F1/FEMALE, Target Tissue: Type of Lesion: LUNG: ADENOMA): 7/50 (14%), 1/47 (2%), 86%, p<0.05
tumour outcome (control, treated, inhibition, significance) (Dose [Inhibitor]: 0, 100 PPM IN FEED FOR 103 WK (STUDY DURATION: 2 YR), Species: MOUSE, Strain/Sex: B6C3F1/MALE, Target Tissue: Type of Lesion: LIVER: ADENOMA OR CARCINOMA): 14/50 (28%), 2/50 (4%), 86%, p<0.01
tumour outcome (control, treated, inhibition, significance) (Dose [Inhibitor]: 0, 100 PPM IN FEED FOR 103 WK (STUDY DURATION: 2 YR), Species: MOUSE, Strain/Sex: B6C3F1/MALE, Target Tissue: Type of Lesion: LIVER: ADENOMA): 10/50 (20%), 1/50 (2%), 90%, p<0.01
tumour outcome (control, treated, inhibition, significance) (Dose [Inhibitor]: 0, 100 PPM IN FEED FOR 103 WK (STUDY DURATION: 2 YR), Species: MOUSE, Strain/Sex: B6C3F1/MALE, Target Tissue: Type of Lesion: LIVER: CARCINOMA): 4/50 (8%), 1/50 (2%), 75%, not calculated
tumour outcome (control, treated, inhibition, significance) (Dose [Inhibitor]: 0, 100 PPM IN FEED FOR 103 WK (STUDY DURATION: 2 YR), Species: MOUSE, Strain/Sex: B6C3F1/MALE, Target Tissue: Type of Lesion: LUNG: ADENOMA): 6/50 (12%), 3/50 (6%), 50%, not calculated
tumour outcome (control, treated, inhibition, significance) (Dose [Inhibitor]: 0, 100 PPM IN FEED FOR 103 WK (STUDY DURATION: 2 YR), Species: RAT, Strain/Sex: F344/FEMALE, Target Tissue: Type of Lesion: ANTERIOR PITUITARY GLAND: ADENOMA): 31/50 (62%), 19/50 (38%), 39%, p<0.05
tumour outcome (control, treated, inhibition, significance) (Dose [Inhibitor]: 0, 100 PPM IN FEED FOR 103 WK (STUDY DURATION: 2 YR), Species: RAT, Strain/Sex: F344/FEMALE, Target Tissue: Type of Lesion: MAMMARY GLAND: FIBROADENOMA): 21/50 (42%), 2/50 (4%), 90%, p<0.01
tumour outcome (control, treated, inhibition, significance) (Dose [Inhibitor]: 0, 100 PPM IN FEED FOR 103 WK (STUDY DURATION: 2 YR), Species: RAT, Strain/Sex: F344/FEMALE, Target Tissue: Type of Lesion: UTERUS: ENDOMETRIAL STROMA POLYP): 10/50 (20%), 3/50 (6%), 70%, p<0.05
tumour outcome (control, treated, inhibition, significance) (Dose [Inhibitor]: 0, 100 PPM IN FEED FOR 103 WK (STUDY DURATION: 2 YR), Species: RAT, Strain/Sex: F344/MALE, Target Tissue: Type of Lesion: ADRENAL GLAND: PHEOCHROMOCYTOMA): 23/49 (47%), 7/50 (14%), 70%, p<0.01
tumour outcome (control, treated, inhibition, significance) (Dose [Inhibitor]: 0, 100 PPM IN FEED FOR 103 WK (STUDY DURATION: 2 YR), Species: RAT, Strain/Sex: F344/MALE, Target Tissue: Type of Lesion: ANTERIOR PITUITARY GLAND: ADENOMA): 15/49 (31%), 9/49 (18%), 42%, not calculated
tumour outcome (control, treated, inhibition, significance) (Dose [Inhibitor]: 0, 100 PPM IN FEED FOR 103 WK (STUDY DURATION; 2 YR), Dose [Inhibitor]: 0, 100 PPM IN FEED FOR 103 WK (STUDY DURATION; 2 YR), Species: MOUSE, Strain/Sex: B6C3F1/MALE, Target Tissue: Type of Lesion: HARDERIAN GLAND: ADENOMA): 4/50 (8%), 0/50 (0%), 100%, not calculated
tumour outcome (control, treated, inhibition, significance) (Dose [Inhibitor]: O, 20 PPM IN FEED FOR 103 WK (STUDY DURATION: 2 YR), Species: MOUSE, Strain/Sex: B6C3F1/MALE, Target Tissue: Type of Lesion: LUNG: ADENOMA OR CARCINOMA): 8/50 (16%), 3/50 (6%), 63%, not calculated
tumour outcome (control, treated, inhibition, significance) (Dose [Inhibitor]: O, 100 PPM IN FEED FOR 103 WK (STUDY DURATION: 2 YR), Species: MOUSE, Strain/Sex: B6C3F1/MALE, Target Tissue: Type of Lesion: LUNG: ADENOMA OR CARCINOMA): 8/50 (16%), 4/50 (8%), 50%, not calculated
